From PubChem BioAssay (NCI)
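Interpolation was linear, between the two tested concentrations surrounding the appropriate level; five concentrations were tested over 48 hours in 96-well plates. The concentration for 50% growth inhibition is given as GI50. Definition used: TGI = concentration required for complete inhibition of growth.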

Legend:
Test in all cases: NCI-60 cell line screen, 48 h
786-0 renal = system: 786-0 renal
A498 renal = system: A498 renal
A549 NSCLC = system: A549 NSCLC
ACHN renal = system: ACHN renal
BT-549 breast = system: BT-549 breast
CAKI-1 renal = system: CAKI-1 renal
CCRF-CEM leukemia = system: CCRF-CEM leukemia
COLO 205 colon = system: COLO 205 colon
DU-145 prostate = system: DU-145 prostate
EKVX NSCLC = system: EKVX NSCLC
HCC-2998 colon = system: HCC-2998 colon
HCT-116 colon = system: HCT-116 colon
HCT-15 colon = system: HCT-15 colon
HL-60(TB) leukemia = system: HL-60(TB) leukemia
HOP-62 NSCLC = system: HOP-62 NSCLC
HOP-92 NSCLC = system: HOP-92 NSCLC
HS 578T breast = system: HS 578T breast
HT29 colon = system: HT29 colon
IGROV1 ovarian = system: IGROV1 ovarian
K-562 leukemia = system: K-562 leukemia
KM12 colon = system: KM12 colon
LOX IMVI melanoma = system: LOX IMVI melanoma
M14 melanoma = system: M14 melanoma
MALME-3M melanoma = system: MALME-3M melanoma
MCF7 breast = system: MCF7 breast
MDA-MB-231 breast = system: MDA-MB-231 breast
MDA-MB-435 = system: MDA-MB-435
MOLT-4 leukemia = system: MOLT-4 leukemia
NCI-H23 lung = system: NCI-H23 lung
NCI-H460 lung = system: NCI-H460 lung
NCI-H522 lung = system: NCI-H522 lung
NCI/ADR-RES ovarian = system: NCI/ADR-RES ovarian
OVCAR-3 ovarian = system: OVCAR-3 ovarian
OVCAR-4 ovarian = system: OVCAR-4 ovarian
OVCAR-5 ovarian = system: OVCAR-5 ovarian
OVCAR-8 ovarian = system: OVCAR-8 ovarian
PC-3 prostate = system: PC-3 prostate
RPMI-8226 leukemia = system: RPMI-8226 leukemia
RXF 393 renal = system: RXF 393 renal
SF-268 CNS = system: SF-268 CNS
SF-295 CNS = system: SF-295 CNS
SF-539 CNS = system: SF-539 CNS
SK-MEL-2 melanoma = system: SK-MEL-2 melanoma
SK-MEL-28 melanoma = system: SK-MEL-28 melanoma
SK-MEL-5 melanoma = system: SK-MEL-5 melanoma
SN12C renal = system: SN12C renal
SNB-19 CNS = system: SNB-19 CNS
SNB-75 CNS = system: SNB-75 CNS
SR leukemia = system: SR leukemia
SW-620 colon = system: SW-620 colon
T-47D breast = system: T-47D breast
TK-10 renal = system: TK-10 renal
U251 CNS = system: U251 CNS
UACC-257 melanoma = system: UACC-257 melanoma
UACC-62 melanoma = system: UACC-62 melanoma
UO-31 renal = system: UO-31 renal
NCI-H226 lung = system: NCI-H226 lung
SK-OV-3 ovarian = system: SK-OV-3 ovarian

## CC[C@]12CCCN3CC[C@]4(C(=C(C(=O)OC)C1)Nc1ccccc14)[C@@H]32
786-0 renal
  GI50: 13.9 µM
  TGI: 29.1 µM
A498 renal
  GI50: 16.1 µM
  TGI: 32.4 µM
A549 NSCLC
  GI50: 16.3 µM
  TGI: 42.6 µM
ACHN renal
  GI50: 15.3 µM
  TGI: 28.6 µM
BT-549 breast
  GI50: 19.8 µM
  TGI: 46.7 µM
CAKI-1 renal
  GI50: 11.8 µM
  TGI: 32.8 µM
CCRF-CEM leukemia
  GI50: 21.4 µM
  TGI: 70 µM
COLO 205 colon
  GI50: 16.9 µM
  TGI: 35.7 µM
DU-145 prostate
  GI50: 16.8 µM
  TGI: 35.2 µM
EKVX NSCLC
  GI50: 18.9 µM
  TGI: 63.1 µM
HCC-2998 colon
  GI50: 14.6 µM
  TGI: 29 µM
HCT-116 colon
  GI50: 14.6 µM
  TGI: 33 µM
HCT-15 colon
  GI50: 13.7 µM
  TGI: 28.5 µM
HL-60(TB) leukemia
  GI50: 21.9 µM
  TGI: 52 µM
HOP-62 NSCLC
  GI50: 15.6 µM
  TGI: 32.7 µM
HOP-92 NSCLC
  GI50: 7.09 µM
  TGI: 24.6 µM
HS 578T breast
  GI50: 17.3 µM
  TGI: 76.1 µM
HT29 colon
  GI50: 14.1 µM
  TGI: 33.9 µM
IGROV1 ovarian
  GI50: 16.8 µM
  TGI: 45.6 µM
K-562 leukemia
  GI50: 11.9 µM
  TGI: 43.4 µM
KM12 colon
  GI50: 16.7 µM
  TGI: 39.1 µM
LOX IMVI melanoma
  GI50: 14.3 µM
  TGI: 27.5 µM
M14 melanoma
  GI50: 20.5 µM
  TGI: 51.7 µM
MALME-3M melanoma
  GI50: 13 µM
  TGI: 29.7 µM
MCF7 breast
  GI50: 16 µM
  TGI: 33.8 µM
MDA-MB-231 breast
  GI50: 15.5 µM
  TGI: 38.1 µM
MDA-MB-435
  GI50: 11.1 µM
  TGI: 41 µM
MOLT-4 leukemia
  GI50: 18.8 µM
  TGI: 43.7 µM
NCI-H23 lung
  GI50: 17.1 µM
  TGI: 43.8 µM
NCI-H460 lung
  GI50: 18.1 µM
  TGI: 38.3 µM
NCI-H522 lung
  GI50: 13 µM
  TGI: 30.3 µM
NCI/ADR-RES ovarian
  GI50: 14.3 µM
  TGI: 33.4 µM
OVCAR-3 ovarian
  GI50: 17 µM
  TGI: 31.1 µM
OVCAR-4 ovarian
  GI50: 15.4 µM
  TGI: 54.8 µM
OVCAR-5 ovarian
  GI50: 15.9 µM
  TGI: 34.1 µM
OVCAR-8 ovarian
  GI50: 17.6 µM
  TGI: 38.9 µM
PC-3 prostate
  GI50: 20.5 µM
  TGI: 61.5 µM
RPMI-8226 leukemia
  GI50: 19.4 µM
  TGI: 51.2 µM
RXF 393 renal
  GI50: 15.5 µM
  TGI: 30.4 µM
SF-268 CNS
  GI50: 18 µM
  TGI: 37.8 µM
SF-295 CNS
  GI50: 17.9 µM
  TGI: 36.1 µM
SF-539 CNS
  GI50: 18.2 µM
  TGI: 37.9 µM
SK-MEL-2 melanoma
  GI50: 16.8 µM
  TGI: 39.2 µM
SK-MEL-28 melanoma
  GI50: 21.3 µM
  TGI: 64.7 µM
SK-MEL-5 melanoma
  GI50: 15.4 µM
  TGI: 28.8 µM
SN12C renal
  GI50: 16.4 µM
  TGI: 33.2 µM
SNB-19 CNS
  GI50: 22.9 µM
  TGI: 66.2 µM
SNB-75 CNS
  GI50: 13.6 µM
  TGI: 61.9 µM
SR leukemia
  GI50: 17.2 µM
  TGI: > 100 µM
SW-620 colon
  GI50: 16.2 µM
  TGI: 33.3 µM
T-47D breast
  GI50: 16.6 µM
  TGI: 80.5 µM
TK-10 renal
  GI50: 19.9 µM
  TGI: 56.7 µM
U251 CNS
  GI50: 15.1 µM
  TGI: 29.6 µM
UACC-257 melanoma
  GI50: 16.7 µM
  TGI: 42.2 µM
UACC-62 melanoma
  GI50: 11.4 µM
  TGI: 31 µM
UO-31 renal
  GI50: 10.9 µM
  TGI: 24.1 µM

## CN1CCCN(C(c2ccccc2)c2ccc(Br)cc2)CC1 (stereo not given)
786-0 renal
  GI50: 3.94 µM
  TGI: 14 µM
A498 renal
  GI50: 5.86 µM
  TGI: 17.9 µM
A549 NSCLC
  GI50: 10.9 µM
  TGI: 25.6 µM
ACHN renal
  GI50: 3.62 µM
  TGI: 14.1 µM
BT-549 breast
  GI50: 4.89 µM
  TGI: 19.4 µM
CAKI-1 renal
  GI50: 3.24 µM
  TGI: 13.4 µM
CCRF-CEM leukemia
  GI50: 4.14 µM
  TGI: 18.9 µM
COLO 205 colon
  GI50: 3.93 µM
  TGI: 16.2 µM
DU-145 prostate
  GI50: 10.5 µM
  TGI: 22.3 µM
EKVX NSCLC
  GI50: 4.94 µM
  TGI: 19.6 µM
HCC-2998 colon
  GI50: 4.55 µM
  TGI: 16 µM
HCT-116 colon
  GI50: 1.84 µM
  TGI: 4.23 µM
HCT-15 colon
  GI50: 3.49 µM
  TGI: 14 µM
HL-60(TB) leukemia
  GI50: 3.52 µM
  TGI: 34.1 µM
HOP-62 NSCLC
  GI50: 6.52 µM
  TGI: 19.3 µM
HOP-92 NSCLC
  GI50: 0.635 µM
  TGI: 7.73 µM
HS 578T breast
  GI50: 2.37 µM
  TGI: 6.35 µM
HT29 colon
  GI50: 2.92 µM
  TGI: 13.1 µM
IGROV1 ovarian
  GI50: 8.83 µM
  TGI: 22.1 µM
K-562 leukemia
  GI50: 5.04 µM
  TGI: > 100 µM
KM12 colon
  GI50: 2.73 µM
  TGI: 7.09 µM
LOX IMVI melanoma
  GI50: 2.85 µM
  TGI: 10.1 µM
M14 melanoma
  GI50: 1.61 µM
  TGI: 2.99 µM
MALME-3M melanoma
  GI50: 2.57 µM
  TGI: 11.8 µM
MCF7 breast
  GI50: 2.63 µM
  TGI: 10 µM
MDA-MB-231 breast
  GI50: 2.41 µM
  TGI: 7.81 µM
MDA-MB-435
  GI50: 1.87 µM
  TGI: 3.83 µM
MOLT-4 leukemia
  GI50: 3.92 µM
  TGI: 58.2 µM
NCI-H226 lung
  GI50: 7.23 µM
  TGI: 20.8 µM
NCI-H23 lung
  GI50: 10.3 µM
  TGI: 22.1 µM
NCI-H460 lung
  GI50: 6.55 µM
  TGI: 19 µM
NCI-H522 lung
  GI50: 3.62 µM
  TGI: 13.9 µM
NCI/ADR-RES ovarian
  GI50: 3.09 µM
OVCAR-3 ovarian
  GI50: 2.83 µM
  TGI: 10.2 µM
OVCAR-4 ovarian
  GI50: 7.63 µM
  TGI: 20.5 µM
OVCAR-5 ovarian
  GI50: 10.7 µM
  TGI: 22.5 µM
OVCAR-8 ovarian
  GI50: 6.5 µM
  TGI: 21 µM
PC-3 prostate
  GI50: 2.87 µM
  TGI: 13.5 µM
RPMI-8226 leukemia
  GI50: 9.04 µM
  TGI: 36.2 µM
RXF 393 renal
  GI50: 2.65 µM
  TGI: 8.67 µM
SF-268 CNS
  GI50: 2.76 µM
  TGI: 8.97 µM
SF-295 CNS
  GI50: 3.52 µM
  TGI: 14.5 µM
SF-539 CNS
  GI50: 3.09 µM
  TGI: 11.1 µM
SK-MEL-2 melanoma
  GI50: 3.66 µM
  TGI: 11.3 µM
SK-MEL-28 melanoma
  GI50: 2.43 µM
  TGI: 5.97 µM
SK-MEL-5 melanoma
  GI50: 1.85 µM
  TGI: 3.74 µM
SK-OV-3 ovarian
  GI50: 3.66 µM
  TGI: 14.5 µM
SN12C renal
  GI50: 3.51 µM
  TGI: 12.5 µM
SNB-19 CNS
  GI50: 14.8 µM
  TGI: 28 µM
SNB-75 CNS
  GI50: 3.1 µM
  TGI: 17.9 µM
SW-620 colon
  GI50: 2.9 µM
  TGI: 10.6 µM
T-47D breast
  GI50: 3.18 µM
  TGI: 19.2 µM
TK-10 renal
  GI50: 10.4 µM
  TGI: 22.7 µM
U251 CNS
  GI50: 3 µM
  TGI: 10.3 µM
UACC-257 melanoma
  GI50: 2.41 µM
  TGI: 5.41 µM
UACC-62 melanoma
  GI50: 2.03 µM
  TGI: 4.35 µM
UO-31 renal
  GI50: 2.65 µM
  TGI: 16 µM
